Experimental data as given in patent publication US20260248748A1, “LIPOOLIGOUREAS, PHARMACEUTICAL COMPOSITION, AND LIPOOLIGOUREAS FOR USE AS MEDICAMENT” (priority 2022, published 2026).
≈ marks a conversion by molar mass, not a printed value. Like-named read-outs stand apart in the source and are kept apart here.

Experiments:
[1] = test system: Klebsiella pneumoniae PCM 1; format: cell-based; settings: LB medium, 24 h, 30° C.
Procedure: (§1) All strains were cultured in LB medium (lysogenic broth).
(§2) The test compounds were dissolved in water. […] Data were obtained from three independent experiments.

[2] = test system: Enterococcus faecalis ATCC 14506; format: cell-based; settings: LB medium, 24 h, 30° C.
Procedure: as §1, §2

[3] = test system: Yersinia enterocolitica PCM 2081; format: cell-based; settings: LB medium, 24 h, 30° C.
Procedure: as §1, §2

[4] = test system: Escherichia coli ST2-8624 O157:H7; format: cell-based; settings: LB medium, 24 h, 30° C.
Procedure: as §1, §2

[5] = test system: Staphylococcus epidermidis ATCC 12228; format: cell-based; settings: LB medium, 24 h, 30° C.
Procedure: as §1, §2

[6] = test system: Pseudomonas aeruginosa PAO1 PCM 499; format: cell-based; settings: LB medium, 24 h, 30° C.
Procedure: as §1, §2

[7] = test system: Staphylococcus aureus ATCC 29213; format: cell-based; settings: LB medium, 24 h, 30° C.
Procedure: as §1, §2

[8] = test system: Salmonella sv. typhimurium TT622; format: cell-based; settings: 24 h
Procedure: as §1, §2

[9] = test system: Methicillin-resistant Staphylococcus aureus (MRSA) 5288/13; settings: MRSA strain (+) 5288/13; LB medium, 24 h, 30° C.
Text: (§3) All bacterial strains were obtained from the Polish Collection of Microorganisms (PCM) or American Type Culture Collection (ATCC). Gram-positive bacterial strains: Staphylococcus aureus ATCC 29213, Staphylococcus epidermidis ATCC 12228, Enterococcus faecalis ATCC 14506. Methicillin-resistant Staphylococcus aureus (MRSA) bacterial strains: Staphylococcus aureus 401/5, Staphylococcus aureus 4811/13, Staphylococcus aureus 5288/13. Gram-negative bacterial strains: Escherichia coli ST2-8624 O157:H7, Pseudomonas aeruginosa PAO1 PCM 499, Klebsiella pneumoniae PCM 1, Salmonella sv. typhimurium TT622, and Yersinia enterocolitica PCM 2081. All strains were cultured in LB medium (lysogenic broth).
(§4) 10 mL of LB medium was inoculated with the material from a single bacterial colony and cultured at 30° C. with shaking overnight. The optical density of overnight cultures (at 600 nm) was then brought to 0.05 by dilution with a fresh portion of LB medium. The test compounds were dissolved in water. Serial dilutions of the compounds were performed in LB medium ranging from 5 to 50 μg/mL (final concentrations). The experiment was carried out by adding 100 μL of each prepared dilution to 100 μL of diluted overnight bacterial culture in the wells of a 96-well titer plate. […] Optical density measurements were conducted using a TECAN Sunrise plate reader. Data were obtained from three independent experiments.

[10] = test system: Methicillin-resistant Staphylococcus aureus (MRSA) 401/5; settings: MRSA strain (+) 401/5; LB medium, 24 h, 30° C.
Text: as §3, §4

[11] = test system: Methicillin-resistant Staphylococcus aureus (MRSA) 4811/13; settings: MRSA strain (+) 4811/13; LB medium, 24 h, 30° C.
Text: as §3, §4

[12] = test system: strains of methicillin-resistant Staphylococcus aureus (MRSA); test: Activity against MRSA strains (summary of the MIC results); format: cell-based; settings: in words, from the MIC values of Table 1
Procedure: as §1, §2
The results of the measurements summarized in Table 1 indicate that all of the lipooligoureas tested show varying activity against the bacterial strains tested. Lipooligoureas according to the invention show activity against both gram-positive and gram-negative bacterial strains. The results obtained indicate a certain degree of selectivity of the lipooligoureas according to the invention against gram-positive strains of Staphylococcus aureus ATCC 29213 and Staphylococcus epidermidis ATCC 12228, for which by far the highest activity of the tested lipooligoureas was observed, i.e. the lowest values of MIC. This trend is also reflected in the activity against strains of methicillin-resistant Staphylococcus aureus (MRSA).

[13] = (−) Salmonella sv. typhimurium TT622, LB medium, 30° C.

CCCCCCCCCC(=O)N[C@H](CNC(=O)N[C@@H](CCCCN)CNC(=O)N[C@@H](CCCCN)CNC(=O)N[C@H](CNC(=O)N[C@@H](CCCCN)CNC(N)=O)CC(C)C)Cc1ccccc1 [LOU1]
MIC [1]: n.d. (n.d. = not determined, i.e., the MIC value was higher than 50 μg/mL)
MIC [2]: n.d. (n.d. = not determined, i.e., the MIC value was higher than 50 μg/mL)
MIC [3]: n.d. (n.d. = not determined, i.e., the MIC value was higher than 50 μg/mL)
MIC [4]: n.d. (n.d. = not determined, i.e., the MIC value was higher than 50 μg/mL)
MIC [5]: 30 mg/L (≈ 31.2 µM)
MIC [6]: n.d. (n.d. = not determined, i.e., the MIC value was higher than 50 μg/mL)
MIC [7]: 30 mg/L (≈ 31.2 µM)
MIC [8, 13]: n.d. (n.d. = not determined, i.e., the MIC value was higher than 50 μg/mL)
MIC [9]: 40 mg/L (≈ 41.6 µM)
MIC [10]: 30 mg/L (≈ 31.2 µM)
MIC [11]: 30 mg/L (≈ 31.2 µM)

CCCCCCCCCC(=O)N[C@H](CNC(=O)N[C@@H](CCN)CNC(=O)N[C@@H](CCN)CNC(=O)N[C@H](CNC(=O)N[C@H](CNC(N)=O)CC(C)C)CC(C)C)Cc1ccccc1 [LOU2]
MIC [1]: 30 mg/L (≈ 33.7 µM)
MIC [2]: 20 mg/L (≈ 22.5 µM)
MIC [3]: 30 mg/L (≈ 33.7 µM)
MIC [4]: 30 mg/L (≈ 33.7 µM)
MIC [5]: 10 mg/L (≈ 11.2 µM)
MIC [6]: 30 mg/L (≈ 33.7 µM)
MIC [7]: 10 mg/L (≈ 11.2 µM)
MIC [8]: 30 mg/L (≈ 33.7 µM)
activity against strains of methicillin-resistant Staphylococcus aureus (MRSA) [12]: particularly high activity
MIC [9]: 10 mg/L (≈ 11.2 µM)
MIC [10]: 10 mg/L (≈ 11.2 µM)
MIC [11]: 10 mg/L (≈ 11.2 µM)

CCCCCCCCCC(=O)N[C@H](CNC(=O)N[C@@H](CCN)CNC(=O)N[C@H](CNC(=O)N[C@H](CNC(=O)N[C@@H](CCN)CNC(N)=O)CC(C)C)CC(C)C)Cc1ccccc1 [LOU3]
MIC [1]: 20 mg/L (≈ 22.5 µM)
MIC [2]: 5 mg/L (≈ 5.62 µM)
MIC [3]: 10 mg/L (≈ 11.2 µM)
MIC [4]: 10 mg/L (≈ 11.2 µM)
MIC [5]: 5 mg/L (≈ 5.62 µM)
MIC [6]: 10 mg/L (≈ 11.2 µM)
MIC [7]: 5 mg/L (≈ 5.62 µM)
MIC [8]: 20 mg/L (≈ 22.5 µM)
activity against strains of methicillin-resistant Staphylococcus aureus (MRSA) [12]: particularly high activity
MIC [9]: 5 mg/L (≈ 5.62 µM)
MIC [10]: 5 mg/L (≈ 5.62 µM)
MIC [11]: 5 mg/L (≈ 5.62 µM)

CCCCCCCCCC(=O)N[C@H](CNC(=O)N[C@@H](CCN)CNC(=O)N[C@@H](CCN)CNC(=O)N[C@H](CNC(=O)N[C@@H](CCN)CNC(N)=O)CC(C)C)Cc1ccccc1 [LOU4]
MIC [1]: n.d. (n.d. = not determined, i.e., the MIC value was higher than 50 μg/mL)
MIC [2]: 40 mg/L (≈ 45.6 µM)
MIC [3]: n.d. (n.d. = not determined, i.e., the MIC value was higher than 50 μg/mL)
MIC [4]: n.d. (n.d. = not determined, i.e., the MIC value was higher than 50 μg/mL)
MIC [5]: 20 mg/L (≈ 22.8 µM)
MIC [6]: n.d. (n.d. = not determined, i.e., the MIC value was higher than 50 μg/mL)
MIC [7]: 20 mg/L (≈ 22.8 µM)
MIC [8, 13]: n.d. (n.d. = not determined, i.e., the MIC value was higher than 50 μg/mL)
MIC [9]: 30 mg/L (≈ 34.2 µM)
MIC [10]: 20 mg/L (≈ 22.8 µM)
MIC [11]: 30 mg/L (≈ 34.2 µM)
